In ChEMBL document CHEMBL2440031, “Benzochalcones bearing pyrazoline moieties show anti-colorectal cancer activities and selective inhibitory effects on aurora kinases” (Bioorg Med Chem, 2013) one finds IC50 and Activity data, which are given here for 16 compounds.

Calls of active or inactive are those of the source. The calls are words filed in the database; no cut-off is given here.

Assay [1] relates to HCT-116. Put plainly: Cytotoxicity against human HCT116 cells after 7 days using crystal violet staining by clonogenic survival assay. The class given is functional, cell-based. To be noted: HCT-116, 168 h.
Assay [2] relates to HCT-116. Put plainly: Increase of p21 expression in human HCT116 cells at 40 uM by Western blot analysis. To be noted: TDE = time-dependent effect. The assay is classed as functional, cell-based. Background: In western blotting, separated proteins are transferred to a membrane and probed.
Assay [3] relates to HCT-116. Put plainly: Cytotoxicity against human HCT116 cells up to 40 uM by WST-8 assay. The assay is classed as functional, cell-based. To be noted: TDE = time-dependent effect. (Tetrazolium assays rely on reduction of a dye to a coloured formazan, in cell work by metabolically active cells.)
In assay [4] the test system is HCT-116. Kind of assay: Cell cycle arrest in human HCT116 cells assessed as accumulation at sub-G1 phase accumulation at 40 uM after 12 to 48 hrs using propidium iodide staining by flow cytometric analysis relative to total cells. The class given is functional. (In general: A flow cytometer gives signals particle by particle.)
The test system of assay [5] is HCT-116. Kind of assay: Increase of cyclin-D1 expression in human HCT116 cells at 40 uM after 24 to 48 hrs by Western blot analysis. The assay is classed as functional, cell-based.
Assay [6] concerns HCT-116. Put plainly: Effect on cyclin-A1 expression in human HCT116 cells at 40 uM after 12 to 48 hrs by Western blot analysis. The class given is functional, cell-based.
Assay [7] relates to HCT-116. Put plainly: Increase of cyclin-D1 expression in human HCT116 cells at 40 uM after 12 hrs by Western blot analysis. The class given is functional, cell-based.
Assay [8] relates to HCT-116. Kind of assay: Decrease of cyclin-B1 expression in human HCT116 cells at 40 uM after 24 hrs by Western blot analysis. The assay is classed as functional, cell-based.
For assay [9], the system named is HCT-116. Kind of assay: Cell cycle arrest in human HCT116 cells assessed as decrease of S phase accumulation at 40 uM after 12 to 48 hrs using propidium iodide staining by flow cytometric analysis. The class given is functional, cell-based.
Assay [10] relates to HCT-116. Kind of assay: Cytotoxicity against human HCT116 cells after 24 to 48 hrs by WST-8 assay. The assay is classed as functional, cell-based.
Assay [11] deals with HCT-116. Kind of assay: Cell cycle arrest in human HCT116 cells assessed as increase of G1 phase accumulation at 40 uM after 12 to 48 hrs using propidium iodide staining by flow cytometric analysis. The assay is classed as functional, cell-based.
Assay [12] concerns HCT-116. Kind of assay: Cell cycle arrest in human HCT116 cells assessed as decrease of G2/M phase accumulation at 40 uM after 12 to 48 hrs using propidium iodide staining by flow cytometric analysis. The assay is classed as functional, cell-based.
The test system of assay [13] is HCT-116. Put plainly: Increase of CDK expression in human HCT116 cells at 40 uM by Western blot analysis. Particulars: TDE = time-dependent effect. The assay is classed as functional, cell-based.

A word on the IC50: it is the midpoint of a concentration-inhibition curve. Low values mean higher potency, high ones lower potency. Take `COc1ccc(C2CC(c3c(O)ccc4ccccc34)=NN2c2ccc(Cl)cc2)c(OC)c1` (stereo not drawn): the half-maximal inhibitory concentration (IC50) in the assay on HCT-116 [1] came out at 5.4 µM. The same measure, in the same setting: to `COc1cccc(C2CC(c3ccc4ccccc4c3O)=NN2)c1OC` (stereo not drawn) belongs 15.2 µM; to `COc1cccc(C2CC(c3ccc4ccccc4c3O)=NN2)c1` (stereo not drawn), 20.8 µM; to `COc1ccccc1C1CC(c2ccc3ccccc3c2O)=NN1` (stereo not drawn), 17.4 µM. Same read-out and setting: to `COc1ccc(C2CC(c3ccc4ccccc4c3O)=NN2)cc1` (stereo not drawn) belongs 13.2 µM; to `COc1cccc(C2CC(c3c(O)ccc4ccccc34)=NN2)c1OC` (stereo not drawn), 6.3 µM; to `COc1ccc(C2CC(c3c(O)ccc4ccccc34)=NN2)cc1` (stereo not drawn), 7.8 µM.

In the assay on HCT-116 [1], `COc1ccc(C2CC(c3c(O)ccc4ccccc34)=NN2c2ccc(Cl)cc2)cc1` (stereo not drawn) gave an IC50 of 9.8 µM. As to `COc1cc(OC)c(C2CC(c3c(O)ccc4ccccc34)=NN2c2ccc(Cl)cc2)cc1OC` (stereo not drawn), in the assay with HCT-116 [1], the IC50 is 7.8 µM. This IC50 and that of the compound before are within 1.5-fold of each other. On the same count and under the same terms, the figure for `COc1cc(OC)c(C2CC(c3ccc4ccccc4c3O)=NN2)cc1OC` (stereo not drawn) is 9 µM; for `COc1cc(OC)c(C2CC(c3ccc4ccccc4c3O)=NN2)c(OC)c1` (stereo not drawn) it is 32.5 µM. Same read-out and setting: to `COc1ccc(C2CC(c3ccc4ccccc4c3O)=NN2)c(OC)c1` (stereo not drawn) belongs 8.8 µM; to `COc1ccc(C2CC(c3ccc4ccccc4c3O)=NN2)c(OC)c1OC` (stereo not drawn), 11.3 µM. In the case of `COc1ccc(C2CC(c3c(O)ccc4ccccc34)=NN2)c(OC)c1` (stereo not drawn), the Activity entry is “tde” in the assay on HCT-116 [2]; “tde” with HCT-116 [3]; 21.3% in the assay with HCT-116 [4]; “Dose-dependent effect” with HCT-116 [10]; “tde” in the assay on HCT-116 [13]. This compound displayed an IC50 with HCT-116 [1] of 2.4 µM. Besides, the outcome in the assay with HCT-116 [5] was inactive. The result with HCT-116 [6], in the assay with HCT-116 [7], in the assay with HCT-116 [8], in the assay on HCT-116 [9], with HCT-116 [11] and with HCT-116 [12] was Active.

`COc1cc(OC)cc(C2CC(c3ccc4ccccc4c3O)=NN2)c1` (stereo not drawn) had a concentration for half-maximal inhibition (IC50) in the assay with HCT-116 [1] of 4.7 µM. Take `COc1cc(OC)cc(C2CC(c3c(O)ccc4ccccc34)=NN2)c1` (stereo not drawn): inhibition with HCT-116 [1] was half-maximal at 5.7 µM (IC50). This IC50 and that of the compound before are within 1.5-fold of each other.
